From paper PMC4557289, “Thymoproteasomes produce unique peptide motifs for positive selection of CD8^+ T cells” (Nature Communications, 2015)
“Also recorded” adds a separate entry of the source.

What was measured:
[1] = test system: thymus lobes from Tap1^−/− OT-I TCR transgenic mice; assay: fetal thymus organ culture (FTOC) of OT-I thymocytes; format: cell-based, mouse; details: E15 thymus lobes, peptide 20 μM, 3 days, result in words
Experimental: FTOC was essentially performed as described previously. Embryonic mice on day 15 of gestation were obtained from Tap1^−/− OT-I TCR transgenic mice. Thymus lobes were cultured on Isopore membrane filters (Millipore) placed on Gelfoam sponge (Pfizer) floated in medium. Peptides were added at a concentration of 20 μM. After 3 days in the culture, thymocytes were stained with antibodies specific for CD4 (GK1.5), CD8 (53-6.7) and Vα2 (B20.1) and analysed using flow cytometry; staining antibodies were obtained from Biolegend and were used at 10 μg ml^−1.

OT-I TCR [2] = assay: agonist activity assay (T-cell stimulation, CD69), mature OT-I cells; format: cell-based, mouse; details: splenocytes from Rag^−/− OT-I TCR transgenic mice (n=3), peptide 5 h, CD69 on CD8^+CD44^lo cells; Fig. 6d; result in words
Experimental: Spleen cells from Rag1^−/− OT-I TCR transgenic mice (8-week-old females) were cultured in the presence of peptides for 5 h. CD69 expression on CD8^+CD44^lo cells was analysed using flow cytometry using anti-CD69 antibodies (H1.2F3; BD Pharmingen, 10 μg ml^−1).

OT-I thymocytes = details: known classification of OVAp and variants, Fig. 6a; cited from earlier work
Description: To examine whether these peptide features play roles in thymic selection, we employed the OVA-specific TCR transgenic line OT-I, which is the best-studied model of amino-acid substitution in MHC-associated peptides for thymic selection of functionally competent MHC-I-restricted T cells. […] We then tested OVAp variant peptides with tCP ... || Figure 6 OVAp peptide variants with tCP-dependent motifs show lower affinities to OT-I TCR. (a) List of OVAp variants used for assays in b–d and Fig. 7a,b. (b) Binding of peptide/H-2K^b tetramers to CD4/CD8 double-positive thymocytes from Tap1^−/− OT-I TCR-transgenic mice. (c) Dulling of CD4/CD8 co-receptors in OT-I thymocytes by OVAp variants. Thymocytes from Tap1^−/− OT-I TCR-transgenic mice (n=3) were stimulated in the presence of peptides at indicated concentrations and irradiated splenocytes from B6-Ly5.1 mice. (d) Activation of mature OT-I cells by OVAp variants. Splenocytes from Rag2^−/ ...

OT-I TCR [3] = assay: CD4/CD8 dulling assay, OT-I thymocytes; format: cell-based, mouse; details: thymocytes from Tap1^−/− OT-I TCR-transgenic mice (n=3) with peptide and irradiated B6-Ly5.1 splenocytes, 18 h, flow cytometry; Fig. 6c; result in words
Experimental: Dulling assay was performed as described[45][46] with minor modifications. Thymocytes from Tap1^−/− OT-I TCR transgenic mice were stimulated in the presence of peptides and irradiated splenocytes from B6-Ly5.1 mice (CD45.1^+CD45.2^−). Female mice at 6–8 weeks of age were used for experiments. After 18 h, thymocytes were stained with antibodies specific for CD4 (GK1.5), CD8 (53-6.7), CD45.1 (A20) and CD45.2 (104) and analysed using flow cytometry (antibodies were obtained from Biolegend and used at 10 μg ml^−1). Specific dulling of CD4 and CD8 expression induced by peptide stimulation was calculated as previously described.

OT-I TCR [4] = assay: MHC-tetramer-binding assay (peptide/H-2K^b tetramers); set-up: species or system mouse; details: peptide/H-2K^b tetramers on CD4/CD8 double-positive thymocytes from Tap1^−/− OT-I TCR-transgenic mice, 100 μM cytochalasin D, 37 °C, 90 min, flow cytometry; Fig. 6b; result in words
Experimental: CD4/CD8 double-positive thymocytes from Tap1^−/− OT-I TCR transgenic mice (6- to 8-week-old females) were stained with indicated peptide-K^b tetramers (MBL) in the presence of 100 μM cytochalasin D (Sigma-Aldrich) at 37 °C for 90 min (refs [31], [44]) and were analysed using flow cytometry.

affinity to OT-I TCR by MHC-tetramer-binding assay (OT-I TCR [4]): high affinity
Sequence: SIINFEKL [OVAp]
CD4/CD8 double-positive cells in FTOC ([1]; Fig. 7a,b): depletion of CD4/CD8 double-positive cells
number of OT-I TCR^high (Vα2^high) CD8 single-positive thymocytes in FTOC, compared with unrelated peptide gp33 ([1]; Fig. 7b, n=3, Student's t-test): clear decrease
affinity to OT-I TCR by agonist activity assay (OT-I TCR [2]): high affinity
Effects on DP thymocytes (thymic selection of OT-I thymocytes) (OT-I thymocytes): mediates negative selection; also recorded: Negative selector, original Ag
affinity to OT-I TCR by CD4/CD8 dulling assay (OT-I TCR [3]): high affinity
